Test results as given in patent US20120258922A1, “S[…] LOW-DENSITY L[…]” (Seminis Vegetable Seeds, Inc., priority 2011, published 2012).
Read-outs that look alike come from different tables or passages of the source.

Legend:
[1] = system: human monocyte-derived macrophages (HMDM); assay: Macrophage-mediated LDL oxidation in HMDM (oxidized LDL by ELISA and/or TBARS); type: cell-based; settings: for concentrations that significantly inhibit the oxidation of LDL: agent alone, 100 μg/ml LDL, p<0.01 compared to LDL control (FIG. 1, FIG. 2); for concentrations that significantly inhibit the oxidation of LDL / maximum inhibition of LDL oxidation: HMDM; for maximum inhibition of LDL oxidation: each agent individually, dose-dependent, compared to the LDL control, 100 μg/ml LDL (FIG. 1, FIG. 2); for IC50: α-tocopherol alone
Protocol: Raw broccoli extracts (“BE” or “B. Extract”) were prepared from four hybrids. […] 50 grams of extract were mixed with equal parts 50mM MES buffer pH 6.0 solution. Samples were blended for approximately 1 minute until homogeneous then maintained at room temperature for 10 min. Filtrates from samples were diluted 1:40 with 50 mM MES buffer for the assay. […] Assays with the broccoli extracts were performed as described above.

[2] = system: human monocyte-derived macrophages (HMDM); settings: each agent individually, at lower doses; LDL-depleted HMDM (FIGS. 8, 9)
Source text: (§1) Blood was drawn and collected from healthy human volunteers, and LDL was isolated by density gradient centrifugation following methods known to one of ordinary skill in the art (e.g., Napolitano et al., Int J Biochem Cell Biol, 35:1127-43, 2002). Monocytes were also isolated from the blood and separated by Ficoll Hypaque centrifugation also according to known methods (e.g., Napolitano et al., Eur J Clin Invest, 35:482-90, 2005), followed by negative magnetic separation and maintained in culture with 20% autologous serum or F-10 medium for 5-7 days to differentiate into human monocyte-derived macrophages (HMDM). […] Following the pre-incubation step, LDL (100 μg/ml) was added and the cells were incubated for 24 hours. Supernatants were used for assessing oxidized LDL by ELISA (Mercodia) and/or TBARS (“Thiobarbituric Acid Reactive Substances”) as described previously (Devaraj et al., J Clin Invest 98:756, 1996). To assess the glutathione:glutathione disulfide (GSH:GSSG) ratio as an indicator of the redox poise of the cell, cells were dislodged by PBS-EDTA and were lysed (Pierce MPER) after a freeze-thaw cycle. After sonication and centrifugation, the cell pellet was stored at −80° C. until the relative levels of GSH and GSSG were assayed (Oxis Biochemicals). […]

quinone reductase = settings: for QUINONE REDUCTASE ACTIVITY, Expt. 1 / QUINONE REDUCTASE ACTIVITY, Expt. 2 / QUINONE REDUCTASE ACTIVITY, Expt. 3 / QUINONE REDUCTASE ACTIVITY, Average: HMDM + LDL; for QUINONE REDUCTASE ACTIVITY, Average: average of Expt. 1-3; for quinone reductase activity (in words): each agent individually, LDL-treated HMDM (Table 1, FIGS. 10A,B)
Source text: Blood was drawn and collected from healthy human volunteers, and LDL was isolated by density gradient centrifugation following methods known to one of ordinary skill in the art (e.g., Napolitano et al., Int J Biochem Cell Biol, 35:1127-43, 2002). Monocytes were also isolated from the blood and separated by Ficoll Hypaque centrifugation also according to known methods (e.g., Napolitano et al., Eur J Clin Invest, 35:482-90, 2005), followed by negative magnetic separation and maintained in culture with 20% autologous serum or F-10 medium for 5-7 days to differentiate into human monocyte-derived macrophages (HMDM). […] Following the pre-incubation step, LDL (100 μg/ml) was added and the cells were incubated for 24 hours. Supernatants were used for assessing oxidized LDL by ELISA (Mercodia) and/or TBARS (“Thiobarbituric Acid Reactive Substances”) as described previously (Devaraj et al., J Clin Invest 98:756, 1996). To assess the glutathione:glutathione disulfide (GSH:GSSG) ratio as an indicator of the redox poise of the cell, cells were dislodged by PBS-EDTA and were lysed (Pierce MPER) after a freeze-thaw cycle. After sonication and centrifugation, the cell pellet was stored at −80° C. until the relative levels of GSH and GSSG were assayed (Oxis Biochemicals). Quinone reductase activity was assayed following the method described previously (J. Fahey et al., Methods in Enzymology 382, 243-258, 2004).

NQO1 = assay: Inhibition of LDL oxidation in HMDM with SiNQO1 silencing; settings: 100 μg/ml LDL (FIG. 12)
Source text: as §1

Compound: C[S+]([O-])CCCCN=C=S (stereo not drawn) [sulforaphane]
- effect on LDL oxidation ([1]; 2 μM sulforaphane individually applied (FIG. 11)): reduced LDL oxidation
- concentrations that significantly inhibit the oxidation of LDL [1]: greater than 2 μM
- maximum inhibition of LDL oxidation [1]: 58%
- GSH:GSSG ratio [2]: restored the ratio to normal levels
- QUINONE REDUCTASE ACTIVITY, Expt. 1 (quinone reductase; 2 μM sulforaphane): 151.23 nmol/min/mg protein
- QUINONE REDUCTASE ACTIVITY, Expt. 2 (quinone reductase; 2 μM sulforaphane): 124.23 nmol/min/mg protein
- QUINONE REDUCTASE ACTIVITY, Expt. 3 (quinone reductase; 2 μM sulforaphane): 104.56 nmol/min/mg protein
- QUINONE REDUCTASE ACTIVITY, Average (quinone reductase; 2 μM sulforaphane): 126.6733 nmol/min/mg protein
- quinone reductase activity (in words) (quinone reductase): restored enzymatic activity to normal levels

Compound: Cc1c(C)c2c(c(C)c1O)CC[C@@](C)(CCC[C@H](C)CCC[C@H](C)CCCC(C)C)O2 [α-tocopherol]
- effect on LDL oxidation ([1]; 25 μM α-tocopherol individually applied (FIG. 11)): reduced LDL oxidation
- concentrations that significantly inhibit the oxidation of LDL [1]: greater than 12.5 μM
- maximum inhibition of LDL oxidation [1]: 58%
- IC50 ([1]; FIG. 5 experiment): 53.1 µM
- IC50 ([1]; FIG. 7 experiment): 23.6 µM
- GSH:GSSG ratio [2]: restored the ratio to normal levels
- QUINONE REDUCTASE ACTIVITY, Expt. 1 (quinone reductase; 6.25 μM α-tocopherol): 59.87 nmol/min/mg protein
- QUINONE REDUCTASE ACTIVITY, Expt. 2 (quinone reductase; 6.25 μM α-tocopherol): 68.97 nmol/min/mg protein
- QUINONE REDUCTASE ACTIVITY, Expt. 3 (quinone reductase; 6.25 μM α-tocopherol): 41.12 nmol/min/mg protein
- QUINONE REDUCTASE ACTIVITY, Average (quinone reductase; 6.25 μM α-tocopherol): 56.65 nmol/min/mg protein
- QUINONE REDUCTASE ACTIVITY, Expt. 1 (quinone reductase; 12.5 μM α-tocopherol): 66.45 nmol/min/mg protein
- QUINONE REDUCTASE ACTIVITY, Expt. 2 (quinone reductase; 12.5 μM α-tocopherol): 69.47 nmol/min/mg protein
- QUINONE REDUCTASE ACTIVITY, Expt. 3 (quinone reductase; 12.5 μM α-tocopherol): 42.25 nmol/min/mg protein
- QUINONE REDUCTASE ACTIVITY, Average (quinone reductase; 12.5 μM α-tocopherol): 59.39 nmol/min/mg protein
- QUINONE REDUCTASE ACTIVITY, Expt. 1 (quinone reductase; 25 μM α-tocopherol): 68.98 nmol/min/mg protein
- QUINONE REDUCTASE ACTIVITY, Expt. 2 (quinone reductase; 25 μM α-tocopherol): 64.56 nmol/min/mg protein
- QUINONE REDUCTASE ACTIVITY, Expt. 3 (quinone reductase; 25 μM α-tocopherol): 65.14 nmol/min/mg protein
- QUINONE REDUCTASE ACTIVITY, Average (quinone reductase; 25 μM α-tocopherol): 66.23 nmol/min/mg protein
- QUINONE REDUCTASE ACTIVITY, Expt. 1 (quinone reductase; 50 μM α-tocopherol): 77.14 nmol/min/mg protein
- QUINONE REDUCTASE ACTIVITY, Expt. 2 (quinone reductase; 50 μM α-tocopherol): 74.19 nmol/min/mg protein
- QUINONE REDUCTASE ACTIVITY, Expt. 3 (quinone reductase; 50 μM α-tocopherol): 66.23 nmol/min/mg protein
- QUINONE REDUCTASE ACTIVITY, Average (quinone reductase; 50 μM α-tocopherol): 72.52 nmol/min/mg protein
- quinone reductase activity (in words) (quinone reductase): only a modest effect
- effectiveness at inhibiting LDL oxidation after NQO1 silencing (NQO1): reduced but not complete reduction of the effectiveness
